Measured values reported in article PMC9741454, “Selective Structural Derivatization of Flavonoid Acetamides Significantly Impacts Their Bioavailability and Antioxidant Properties” (Molecules, 2022).
pIC50: −log10 of the molar value. Several values for one entry are separate records, joined by “and”; a condition that tells them apart may be missing. Equal values may be shown once.

What was measured:
[1] = In vitro bioavailability by dialysis tubing procedure (pepsin then pancreatin digestion); type: in vitro ADME; settings: for % bioavailability after phase 1 (pepsin digestion) / % bioavailability after phase 2 (pancreatin digestion): in vitro, dialysis tubing, average of three trials ± SD; for % bioavailability after phase 1 (pepsin digestion): 2 h pepsin digestion, pH 1.0, 37 °C; for % bioavailability after phase 2 (pancreatin digestion): 4 h pancreatin digestion, pH 7.0, 37 °C; for Total in vitro bioavailability: sum of phase 1 and phase 2 % bioavailability; as to % bioavailability after phase 1 (pepsin digestion): tested at 69.8 µM
Experimental: The in vitro bioavailability studies of the flavonoid acetamide derivatives were done in simulated gastric and intestinal fluids using the dialysis tubing procedure, as previously reported. The procedure involves two consecutive digestion stages: phase 1, which is a 2-h pepsin-based digestion followed by phase 2, which is a 4-h pancreatin based digestion. This procedure was adopted from Chimento, Adele, et al. (2013) and Grande, Fedora, et al. (2016).
Phase 1: Pepsin digestion, 2 h
The flavonoid acetamide derivatives were dissolved in dimethyl sulfoxide (DMSO) to achieve a concentration of 1.00 × 10^−3 M. The porcine pepsin was prepared to achieve 2.40 × 10^4 U porcine pepsin per 1.00 × 10^−3 L of solution. The sodium cholate solution was prepared to attain a final concentration of 2.00 w/v% while hydrochloric acid was prepared at a concentration of 8.50 × 10^−1 N, for immediate use.
The pepsin digestion phase was completed in 120 min. Into an oven dried test tube, a 1.00 mL of the newly prepared porcine pepsin solution was added, followed by 300 µL of the flavonoid acetamide solution. These two solutions were mixed prior to the addition of 3.00 mL of a fresh batch of the sodium cholate solution. The resultant solution was appropriately mixed and transferred into a dialysis tubing, which was subsequently sealed on both ends. The dialysis tubing was immersed into a freshly prepared 0.85 N hydrochloric acid solution (pH 1.0). The flask and its contents were incubated in a shaking water bath at a regulated temperature of 37 ± 0.5 °C. After 120 min, 3.00 mL of the liquid in the flask was obtained for UV-Vis analysis. The dialysis tubing was carefully recovered and readied for the second stage of the experiment, phase 2. Each sample experiment was done in triplicates.
Phase 2: Pancreatin digestion, 4 h
The following solutions were prepared for immediate use: a solution containing 8.00 × 10^−1 N sodium bicarbonate with […] of porcine pancreatin per 1.00 mL of solution. The dialysis tubing recovered following the pepsin digestion was carefully opened on one end and for the addition of […] of esterase and 1.30 mL of the fresh batch of the NaHCO3 solution. These contents were appropriately mixed, and the dialysis tubing was suitably sealed and immersed in a flask with PBS buffer (at pH 7.0). The flask was incubated for 4 h, in a shaking water bath at a regulated temperature of 37 ± 0.5 °C. At the end of the experiment, a 3.00 mL sample of the liquid in the flask was obtained for UV-Vis analysis. All sample experiments in this phase were done in triplicates.
The calibration curve for each flavonoid acetamide derivative was prepared at both pH 1.0 and pH 7.0. The triplicate samples obtained from both phase 1 and phase 2 of the digestions were characterized using UV-Vis; the data obtained was applied to the equations obtained from the calibration curves to calculate the amount of the flavonoid acetamide derivatives in the recovered samples. The percentage (%) of the recovered flavonoid acetamide derivative for each sample after both pepsin digestion (phase 1) and pancreatin digestion (phase 2) was calculated relative to the total flavonoid content used. Thus, the (%) bioavailability was determined from Equation (1) below. (1) % Bioavailability=Recovered Content/Total Content×100
The total in vitro bioavailability was defined as the sum of the % bioavailability after phase 1 and % bioavailability after phase 2 of the digestion, as shown in Equation (2). The final reported in vitro bioavailability value was the average of the three trials ± the standard deviation. (2) Total Bioavailability=phase 1 bioavailability+phase 2 bioavailability
The bioavailability of the flavonoid acetamides was determined using our previously reported in vitro dialysis tubing procedure. […]

[2] = DPPH free radical scavenging assay; settings: relative IC50, 30 min in the dark, absorbance at 517 nm, methanolic DPPH
Experimental: The stock solutions of the flavonoid acetamide derivatives were prepared in dimethyl sulfoxide. A fresh batch of 50 µM DPPH radical solution was prepared in methanol. The DPPH free radical scavenging activities of the flavonoid acetamide derivatives were determined using our previously reported literature procedure.
Into an amber vial, 1.00 × 10^2 µL solution of the flavonoid acetamide derivative in dimethyl sulfoxide was added into a 3.00 × 10^3 µL of a fresh batch of methanolic DPPH solution. This reaction mixture was incubated, away from light, for half an hour. The absorbance of the resultant solution was read on a UV-Vis spectrophotometer, λmax = 517 nm. This experiment was done across several concentrations to obtain the concentration-based antioxidant activity data which was subsequently used to calculate the relative half-maximal inhibitory concentration (IC50) values.
Given the observed variation of the stability of the DPPH free radical across different solvent vehicles, the stability of the DPPH free radicals was established in both methanol and dimethyl sulfoxide solvents. The percentage DPPH free radical scavenging activity of the flavonoid acetamide derivatives was computed against dimethyl sulfoxide, as per Equation (3). (3) % DPPH RSA=Absorbance of control−Absorbance of sample /Absorbance of control×100
Absorbance control is the absorbance of the blank methanolic DPPH sample with DMSO. The absorbance values were obtained at λmax = 517 nm.
The % RSA obtained was plotted and used to obtain the relative half-maximal inhibitory concentration (IC50) values, which were double confirmed using verified online computational tools.
The 2,2-diphenyl-1-picrylhydrazyl (DPPH) assay was used to evaluate the free radical scavenging capacity of the flavonoid acetamide derivatives. This assay is based on the colorimetric quantification of the DPPH free radicals. The reaction of the DPPH radicals with an antioxidant compound results in the loss of the DPPH free radical properties. The loss of the DPPH free radical properties is identifiable through a color change; a discoloration marked by the formation of a yellow color from the initial violet color. Slight antioxidant activity may be visually imperceptible; such a change may still be monitored spectrophotometrically through UV-Vis analysis at λmax = 517 [40, 44, 45].
The ability of the flavonoid acetamide derivatives to scavenge the DPPH free radicals is influenced by the concentration of both the flavonoid acetamide derivative and the DPPH free radicals, the reaction time, and presence of light during the reaction. The reaction time was set at 30 min and the concentration of the DPPH free radicals was […]. The concentration of the flavonoid acetamide derivatives was varied and the experiment was carried out in the dark. The actual concentration of the DPPH free radical before the addition of the flavonoid acetamide derivative was used as the standard for the purposes of the estimation of the DPPH free radical scavenging effect. The decrease in the DPPH free radical concentration upon the addition of the flavonoid acetamide derivative was used to calculate the antioxidant activity of the flavonoid acetamide derivatives. Thus, the greater the decrease in the DPPH free radical concentration, the higher the antioxidant activity. The antioxidant activity was expressed as the % RSA. […]

Compound | % bioavailability after phase 1 (pepsin digestion) [1] | % bioavailability after phase 2 (pancreatin digestion) [1] | Total in vitro bioavailability [1] | pIC50 [2]
NC(=O)COc1cc(O)c2c(=O)c(OCC(N)=O)c(-c3ccc(OCC(N)=O)c(OCC(N)=O)c3)oc2c1 [Compound 4, 2,2′-((4-(3,7-bis(2-amino-2-oxoethoxy)-5-hydroxy-4-oxo-4H-chromen-2-yl)-1,2-phenylene)bis(oxy))diacetamide] | 6.70% and 6.70 ± 0.03% | 9.26% and 9.26 ± 0.05% | 15.97% and 15.97 ± 0.04% | 4.50
CCOC(=O)COc1cc(OCC(N)=O)cc2oc(-c3ccc(OCC(N)=O)c(OCC(N)=O)c3)c(OCC(N)=O)c(=O)c12 [Compound 5, ethyl 2-((3,7-bis(2-amino-2-oxoethoxy)-2-(3,4-bis(2-amino-2-oxoethoxy)phenyl)-4-oxo-4H-chromen-5-yl)oxy)acetate] | 11.52% and 11.52 ± 0.02% | 13.14% and 13.14 ± 0.01% | 24.66% and 24.66 ± 0.01% | 3.70
NC(=O)COc1cc(OCC(N)=O)c2c(=O)c(OCC(N)=O)c(-c3ccc4c(c3)OCCO4)oc2c1 [Compound 7, 2,2′,2″-((2-(2,3-dihydrobenzo[b][1,4]dioxin-6-yl)-4-oxo-4H-chromene-3,5,7-triyl)tris(oxy))triacetamide] | 16.11% and 16.11 ± 0.11% | 22.01% and 22.01 ± 0.21% | 38.12 ± 0.16% and 38.12% | 4.23
NC(=O)COc1ccc(-c2cc(=O)c3c(O)cc(OCC(N)=O)cc3o2)cc1 [Compound 11, 2-(4-(7-(2-amino-2-oxoethoxy)-5-hydroxy-4-oxo-4H-chromen-2-yl)phenoxy)acetamide] | 9.98% and 9.98 ± 0.10% | 9.30% and 9.30 ± 0.09% | 19.28% and 19.28 ± 0.19% | 4.03
NC(=O)COc1cc(O)c2c(=O)cc(-c3ccc(OCC(N)=O)c(OCC(N)=O)c3)oc2c1 [Compound 15, 2,2′-((4-(7-(2-amino-2-oxoethoxy)-5-hydroxy-4-oxo-4H-chromen-2-yl)-1,2-phenylene)bis(oxy))diacetamide] | 12.51% and 12.51 ± 0.02% | 18.01% and 18.01 ± 0.26% | 30.51% and 30.51 ± 0.27% | 4.33
